Experimental findings from PMC7395176, “Retromer stabilization results in neuroprotection in a model of Amyotrophic Lateral Sclerosis” (Nature Communications, 2020) are described below.

Data set [1] deals with Mouse cortical neurons (E16.5). The experiment in a line: Micro Electrode Array (MEA) recording of neuronal firing. Format: cell-based. As for the experimental part: We assessed the cytotoxicity of compound 2a, measuring survival of Neuro2a cells exposed to increasing 2a concentrations. […] We next checked for toxic effects of compound 2a in primary neuronal cultures coupled with Micro Electrode Array (MEA) devices. Mouse cortical neurons (E16.5) were plated on MEAs, kept in culture for 14 days to develop firing activity and recorded in presence of 2a.
Primary neuronal cultures were established from the cerebral cortex of E16.5 C57BL6J embryos. Upon dissection, cells were plated on MEA biochips (60 electrode MEA biochips with 200 µm electrode spacing and 30 µm electrodes diameter with an integrated reference electrode, Multichannel Systems GmbH) at the density of 3 × 10^5 cells/MEA and kept in Neurobasal medium supplemented with B27 for 14 days. At day 14 neuronal cultures were exposed to increasing concentration of compound 2a (1, 3, 10, 30, and 100 µM) in Krebs–Ringer–Hepes buffer (KRH, 130 mM NaCl, 5 mM KCl, 1.2 mM KH2PO4, 1.2 mM MgSO4, 2 mM CaCl2, 25 mM Hepes, 0.6% glucose, 1% glutamine, Sigma–Aldrich). Firing activity was recorded using a pre-amplifier stage (MEA-1060-Inv-BC-Standard, gain: 55, bandwidth: 300 Hz–8 kHz, MCS GmbH), an amplification and filtering stage (FA64S, gain 20, bandwidth: 10 Hz–8 kHz, MCS GmbH) and a data acquisition device (sampling frequency: 25 kHz). Then, off-line signal processing was performed, and raw data were analyzed by MC-Rack Software version 4.6.2 (MCS GmbH).
Panels a and b; neuronal activityfrom the same electrode of a representative MEA biochip (3x105 cortical neurons/chip, n=5 independent chips from 2 independent experiments) treated with 2a, at the concentration of 1 µM (a) and 100 µM (b). Neurons received increasing amounts of lead 2a (1,3, 10, 30 and 100 µM) and were recorded every 5 min; c, quantifications of the firing activityreported as fold changes of spike numbers (box plots show median values; whiskers show 10-90 percentile) measured at the concentration of 1
µM. Kruskal-Wallis testfollowed by Dunn’s multiple comparison test was used to analyze the […]

Data set [2] deals with SOD1^G93A-transfected Neuro2a cells. The experiment in a line: Lyso-tracker analysis of lysosomes in SOD1G93A-transfected Neuro2a cells. Particulars: 24 h starvation, 10µM. Format: cell-based. As for the experimental part: Lysosomal alterations are early events in ALS[7],[56]. We speculated that an impairment of the retromer should alter protease trafficking via CI-MPR, and therefore disrupt lysosomal homeostasis. […] We transfected Neuro2a cells with plasmids encoding the Sh56-RNAi to downregulate VPS35. After 24 h of starvation, we analyzed the lysosomes using Lyso-tracker[58]. We observed enlarged and abnormally distributed lysosomes in cells with VPS35 interference by Sh56 (Supplementary Fig. 12a–c). […] We asked whether the overexpression of SOD1^G93A would also result in similar lysosomal alterations by transfecting Neuro2a cells with plasmids encoding SOD1^G93A, with or without compound 2a.
VPS35 knockdown impairs lysosomal stability
Panels a and b, Neuro2a cells (4x10^4cells/well) transfected with the scramble plasmid (0.5 µg/well, a)or with the VPS35 RNAi plasmids (Sh56, 0.5 µg/well, b) along with plasmid encoding the GFP (0.1 µg/well) and labelled with Lyso-tracker (75 nM). Quantifications of Lyso Tracker-covered areas (%± SD) in individual GFP+ cells were done on merged confocal images and data are shown in c (scramble: n=52 cells, Sh56: n=39 cells, data are collected from 3 independent experiments, p<0.0001). Protein lysates from Neuro2a cells (3x10^5 cells/well) receiving scramble or Sh56 plasmids (2 µg/well for 48h) were labelled for Ubiquitin and β-Actin (d). […]

The subject of data set [3] is poly-ubiquitinated proteins. The experiment in a line: Poly-ubiquitinated proteins in lumbar SC and MNs of treated G93A mice. The settings on record: 10 mg/kg, day 100. Format: in vivo. The source says: Ubiquitinated inclusions accumulate in MNs from sALS and fALS patients, and in ALS mice[51]. We characterized poly-ubiquitinated proteins in lumbar SCs protein extracts by 10% denaturating PAGE. Protein extracts from Neuro2a cells treated with the proteasome inhibitor Bortezomib (BTZ), able to increase poly-ubiquitination, were used as an experimental control[52] (Fig. 7a). […] We next scored ubiquitin MFI levels in ventral horn MNs of G93A mice. […] (Fig. 7c and d). We next scored the Golgi apparatus in G93A mice by labeling lumbar sections for the cis-Golgi matrix protein GM130[54]. […] (Fig. 7e).
Fluorescence intensity levels of VPS35, VPS26, CI-MPR, Sortilin, CTSD and Ubiquitin were calculated using NHI-Image J software (US National Institutes of Health) according to the following protocol: stacks of confocal images were used to generate the maximal projections using the Leica Application Suite X (2.0.0.14332) software and then postprocessed by NHI-Image J to crop single NeuN^+ MNs from the ventral horn of the spinal cord. We next performed background (calculated on adjacent slices only receiving secondary antibodies) subtraction for each channel, before applying the NHI-Image J mean filter (with radius 2.0 pixels) to calculate mean NeuN fluorescence levels in individual MNs. […] On this ROI, we measured mean fluoresce levels (MFI) of target proteins.

Consider `NC(N)=N/N=C/c1cccc(/C=N/N=C(N)N)c1` [compound 2a, phenyl-1,3-bis-guanylhydrazone], for which, in data set [1] (10µM), the neuronal firing result was “does not perturb neuronal firing”. Moreover, in data set [1] (100 μM of 2a), the “neuronal firing (spikes)” value is “slight reduction of spikes”. In data set [1] (low concentrations of 2a), the neuronal firing result is reported as “did not alter neuronal firing”. Further, the “enlarged lysosomes (Lyso-tracker)” value in data set [2] is given as “significantly reverted this phenotype”. Besides, in data set [3], the “poly-ubiquitinated proteins in lumbar SC extracts (WB)” value is “substantially reduced” and the “ubiquitin MFI levels in ventral horn MNs” value is listed as “vehicle-treated G93A MNs were higher than in compound 2a-treated G93A mice”.
